We go through five substances from patent publication US20020059032A1, “Rational selection of putative peptides from identified nucleotide or peptide sequences” (priority 1999, published 2002).

The test system of one assay is Jurkat T cells. In words: Binding test with Jurkat T cells. More on the design: species or system human. On the procedure: Bonding of Radiolabelled Agonists to Jurkat T cells
Culture Conditions of the Cells of the Jurkat T Human Lymphocytic Line
The Jurkat cells are cultured in an RPMI 1640 medium supplemented with foetal calf serum (10% volume/volume) and antibiotics (50 U/ml of penicillin and 50 μg/ml of streptomycin) serum in a humid incubator at 37° C. under an atmosphere of 5% CO2 in air.
The cells are obtained by centrifugation (514 g, 5 minutes), then are washed twice in a standard medium containing: 98 mM of NaCl; 6 mM of KCl; 2.5 mM of NaH2PO4; 1.5 mM of CaCl2, 1 mM of MgCl2, 5 mM of Na-pyruvate; 5 mM of Na-fumarate; 5 mM of Na-glutamate; 2 mM of glutamine; 11.5 mM of glucose; 24.5 mM of Hepes (N-[2-hydroxyethyl]piperazine-N′-[2-ethane sulfonic acid]); 0.5 g/l of bacitracin; 0.1 g/l of soya bean trypsin inhibitor, pH 7.4
Experiments with agonist bonds labelled with iodine 125 (about 50 picomolars) are carried out at 37° C. under agitation for 45-60 minutes in a final volume of 0.5 ml of standard medium containing 2×10^6 cells (4×10^6 cells/ml) and in the presence or absence of competitors. The non-specific bond is evaluated in the presence of a micromolar concentration of cold homologous peptide.

For the next assay, the target named is rat brain membranes. In words: Binding test with rat brain membranes. As for the experimental part:
(§1) The membranes are placed in a buffer (50 mM of Tris-HCl, 5 mM of MgCl2 and 0.1 g/l of bacitracin) at the desired protein concentration (iodized CCK bond, 0.1 mg of protein/ml; iodized gastrin bond: 0.5 mg of proteins/ml). They are then incubated in the presence of a labelled ligand in a total volume of 500 μl (about 10 pM for the iodized CCK8, 20 pM for the iodized gastrin13), 50-80 minutes at 25° C., and in the presence or absence of cold agonists. The reaction is stopped with 3 ml of additional BSA buffer (20 g/l) at 4° C., the tubes are centrifuged at 10,000×g, the supernatant is drawn off and the radioactivity associated with the precipitate is evaluated with a γ counter.
(§2) Membrane Preparations of Different Rat Tissues and Organs
(§3) 1) The rats are sacrificed by rupturing their cervical vertebrae, and the different tissues are removed and washed several times in a large volume of NaCl at 9 per thousand.
(§4) The following steps are carried at 4° C.
(§5) 2) The tissues and organs are transferred, still separately, in a sucrose buffer containing:
(§6) They are then cut up carefully with the aid of fine scissors and crushed using an ultraturax apparatus. […]
(§7) 8) The protein content in the membrane suspensions is evaluated using a Bradford dosage device (BioRad, acording to the manufacturer's instructions). […]

The test system of assay [1] is different rat organ membranes. In words: Binding test with different rat organ membranes. On the procedure: as §1, §2, §3, §4, §5, §6, §7
A further assay has as its system HeLa cells. In words: Binding test with HeLa cells. On the procedure: Studies of the Bonding of Labelled Agonists on the HeLa Cell Line
The cells are cultured in a DMEM medium supplemented with 10% foetal calf serum, 0.5% of antibiotics (penicillin/streptomycin) and 0.5% of glutamine.
24 to 48 hours before experimentation, the cells are replicated in 24-well plates with approximately 100,000 cells per well and per ml.
The bonding studies are carried out with a BindH buffer
For the experiment, the medium is removed and the cells washed twice with 1 ml of buffer. The reaction medium (500 μl) containing the labelled agonist is added into each well in the presence or absence of the cold homologous agonist and the plates are incubated for one hour at 37° C.
The reaction is stopped by removal of the reaction volume and the wells are rinsed twice with 1 ml of BindH with 20% BSA.
The cells are lysed with 500 μl of 1N soda for 20 minutes at ambient temperature and the radioactivity associated with the lysate is evaluated using a gamma counter.

Consider “ELGRGPGPPLPERGA [Example 5, H-ELGRGPGPPLPERGA-NH2]”, for which the “Results, binding test with Jurkat T cells (positive/negative)” value with Jurkat T cells is listed as “negative”. In addition, the IC50 at rat brain membranes came to 90 µM.

In the case of “GQDSIEPVPGQK [Example 1, H-GQDSIEPVPGQK-NH2]”, in assay [1], the “Results, binding test with different rat organ membranes (positive/negative)” value is “negative”. The “Results, binding test with Jurkat T cells (positive/negative)” value in the assay with Jurkat T cells was “negative”. On to PLEPSGG [Example 4, H-PLEPSGG-NH2], for which the “Results, binding test with different rat organ membranes (positive/negative)” value in assay [1] is recorded as “negative”. As to “YERNRQAAAANPENSRGK [Example 6, H-YERNRQAAAANPENSRGK-NH2]”, the “Results, binding test with Jurkat T cells (positive/negative)” value in the assay with Jurkat T cells was “negative”. For the same substance, the half-inhibitory concentration (IC50) on rat brain membranes was 90 µM. For “YFKIDNVKKARVQWA [Example 3, H-YFKIDNVKKARVQWA-NH2]”, in the assay with HeLa cells, the IC50 was determined as 50 µM.
